Data taken from patent publication US12138256B2, “Treatment of cardiopulmonary disorders” (Bayer Aktiengesellschaft, priority 2021, dated 2024).
Where two headings read alike, the source gives them in different places.

Assays:
[1] = Protein binding via Transil assay, human plasma; assay type: in vitro ADME
From the text: (§1) The distribution of a test substance between Transil® (phosphatidylcholine lipid bilayers immobilized on silica beads) and plasma is a characteristic feature of any pharmaceutical compound and is dependent on its extent of binding to plasma proteins. By comparing the distribution between Transil® and buffer with the distribution between Transil® and plasma of any species of interest, the unbound fraction in the plasma of the respective animal species can be calculated in vitro. The respective plasma and buffer concentrations were determined via a radioactivity analysis. A detailed description of the method and its validation was published by Schuhmacher et al. (2).

[2] = Protein binding via Transil assay, plasma of all species investigated (C-5.2); assay type: in vitro ADME; conditions: Wistar (rat), Beagle (dog), plasma (Transil beads), read-out: free fractions
From the text: as §1

[3] = Protein binding via Transil assay, dog plasma; assay type: in vitro ADME; conditions: Dog Beagle plasma, Transil assay
From the text: as §1

[4] = test system: rabbit saphenous artery; assay: Vasorelaxant effect in vitro: phenylephrine-induced contraction of rabbit saphenous artery rings (C-1.1); conditions: for % contraction (PE-induced contraction of rabbit saphenous artery): mean +/− SEM; for IC50: Oryctolagus cuniculus, read-out: IC50, inhibition of phenylephrine induced contractions of rabbit saphenous artery rings
Experimental: Rabbits were anaesthetized and sacrificed by intravenous injection of thiopental sodium (about 50 mg/kg) and exsanguinated. The saphenous artery was removed and divided into rings 3 mm wide. The rings were mounted singly on in each case a pair of triangular hooks open at the end and made of 0.3 mm-thick special wire (Remanium®). Each ring was placed under an initial tension in 5 ml organ baths with Krebs-Henseleit solution which was at 37° C., was gassed with carbogen and had the following composition: NaCl 119 mM; KCl 4.8 mM; CaCl2)×2 H2O 1 mM; MgSO4×7 H2O 1.4 mM; KH2PO41.2 mM; NaHCO325 mM; glucose 10 mM; bovine serum albumin 0.001%. The force of contraction was detected with Statham UC2 cells, amplified and digitized via A/D converters (DAS-1802 HC, Keithley Instruments, Munich) and recorded in parallel on chart recorders. Contractions were induced by addition of phenylephrine.
The concentration necessary to reduce the contraction reached in the preceding control by 50% was calculated from this (IC50). The standard application volume was 5 μl. The proportion of DMSO in the bath solution corresponded to 0.1%.

[5] = test system: anesthetized PAH minipigs; assay: PAH minipig model: intratracheal application of dry powder formulations and different hydrates (PennCentury insufflator); assay type: in vivo, Göttingen minipig; conditions: intratracheal lactose formulation; lower doses not applicable
From the text: After characterization of the effects of comparative example 11 after nebulization of compound solutions, in a further step the effects of crystalline forms of comparative example 11, e.g. sesquihydrate, e.g. example 6e on PAP and BP after inhaled application of different dry powder lactose formulations (table C2.1.8) were studied in anesthetized PAH minipigs.
As reference pure Lactose vehicle was applied in the beginning of each experiment.

[6] = Protein binding via Transil assay, monkey plasma; assay type: in vitro ADME; conditions: Monkey Cynomolgus plasma
From the text: as §1

Compound: O=C(O)c1ccc(CCN(CCc2ccccc2OCc2ccc(-c3ccc(C(F)(F)F)cc3)cc2Cl)[C@H]2CCCc3nc(C(=O)O)ccc32)cc1 [comparative example 11, (5S)-5-{[2-(4-carboxyphenyl)ethyl][2-(2-{[3-chloro-4′-(trifluoromethyl)[biphenyl]-4-yl]methoxy}phenyl)ethyl]amino}-5,6,7,8-tetrahydroquinoline-2-carboxylic acid]
- fraction unbound ([1]; Human (male) plasma, Transil assay, read-out: Fraction unbound): 0.000764
- fraction unbound ([1]; plasma (Transil beads), human plasma, read-out: plasma fu (fraction unbound)): 0.000764
- fraction unbound [2]: < 0.01
- fraction unbound [3]: 0.00108
- % contraction (PE-induced contraction of rabbit saphenous artery) ([4]; 10^−5 M/L, incubation time 0.5 h): 19 ± 3.0%
- % contraction (PE-induced contraction of rabbit saphenous artery) ([4]; 10^−6 M/L, incubation time 0.5 h): 59 ± 4.9%
- % contraction (PE-induced contraction of rabbit saphenous artery) ([4]; 10^−7 M/L, incubation time 0.5 h): 80 ± 4.6%
- % contraction (PE-induced contraction of rabbit saphenous artery) ([4]; 10^−8 M/L, incubation time 0.5 h): 92 ± 3.0%
- % contraction (PE-induced contraction of rabbit saphenous artery) ([4]; 10^−8 M/L, incubation time 2.5 h): 29 ± 9.3%
- % contraction (PE-induced contraction of rabbit saphenous artery) ([4]; 10^−9 M/L, incubation time 0.5 h): 103 ± 3.5%
- % contraction (PE-induced contraction of rabbit saphenous artery) ([4]; 10^−9 M/L, incubation time 2.5 h): 47 ± 6.2%
- % contraction (PE-induced contraction of rabbit saphenous artery) ([4]; 10^−10 M/L, incubation time 0.5 h): 99 ± 3.4%
- % contraction (PE-induced contraction of rabbit saphenous artery) ([4]; 10^−10 M/L, incubation time 2.5 h): 67 ± 5.7%
- % contraction (PE-induced contraction of rabbit saphenous artery) ([4]; 10^−11 M/L, incubation time 0.5 h): 100 ± 1.5%
- % contraction (PE-induced contraction of rabbit saphenous artery) ([4]; 10^−11 M/L, incubation time 2.5 h): 91 ± 2.0%
- % contraction (PE-induced contraction of rabbit saphenous artery) ([4]; 10^−12 M/L, incubation time 2.5 h): 98 ± 0%
- IC50 ([4]; 0.5 h, 30 min after incubation): 911 nM
- IC50 ([4]; preincubation period of 2.5 h): 0.8 nM
- MED (dry powder) [5]: < 7.5 µg/kg
- fraction unbound [6]: 0.000485
